Data published in US7138361B2, “Herbicidal heterocycles” (E. I. du Pont de Nemours and Company, priority 2000, dated 2006).

Tests used:
Type in all cases: in vivo
[1] = test system: giant foxtail (Setaria faberii); experiment: Test B preemergence; conditions: scale 0 to 100, 0 no effect, 100 complete control
How it was run: (§1)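 Pre: seeded pots sprayed, chemical in non-phytotoxic solvent/surfactant mix. Post: plants 2–18 cm, 1–4 leaf, same formulation. Greenhouse 13–15 d; visual % control vs untreated, 0–100 scale.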

[2] = test system: morning glory (Ipomoea hederacea); experiment: Test B preemergence; conditions: Preemergence, Rate 500 g/ha; scale 0 to 100, 0 no effect, 100 complete control
How it was run: as §1

[3] = test system: Surinam grass (Brachiaria decumbens); experiment: Test B preemergence; conditions: scale 0 to 100, 0 no effect, 100 complete control
How it was run: as §1

[4] = test system: lambsquarters (Chenopodium album); experiment: Test B preemergence; conditions: scale 0 to 100, 0 no effect, 100 complete control
How it was run: as §1

corn (Zea mays) [5] = experiment: Test B preemergence; conditions: scale 0 to 100, 0 no effect, 100 complete control
How it was run: as §1

[6] = test system: barnyardgrass (Echinochloa crus-galli); experiment: Test B preemergence; conditions: scale 0 to 100, 0 no effect, 100 complete control
How it was run: as §1

[7] = test system: velvetleaf (Abutilon theophrasti); experiment: Test B preemergence; conditions: Preemergence, Rate 500 g/ha; scale 0 to 100, 0 no effect, 100 complete control
How it was run: as §1

[8] = test system: pigweed (Amaranthus retroflexus); experiment: Test B preemergence; conditions: Preemergence, Rate 500 g/ha; scale 0 to 100, 0 no effect, 100 complete control
How it was run: as §1

[9] = test system: crabgrass (Digitaria sanguinalis); experiment: Test B preemergence; conditions: scale 0 to 100, 0 no effect, 100 complete control
How it was run: as §1

[10] = test system: cocklebur (Xanthium strumarium); experiment: Test B preemergence; conditions: Preemergence, Rate 500 g/ha; scale 0 to 100, 0 no effect, 100 complete control
How it was run: as §1

rice (Oryza saliva) = experiment: Test B preemergence; conditions: Preemergence, Rate 500 g/ha; scale 0 to 100, 0 no effect, 100 complete control
How it was run: as §1

Sunflower = experiment: Test C preemergence; conditions: Rate 125 g/ha, scale 0 to 100, 0 no effect, 100 complete control
[11] = test system: giant foxtail (Setaria faberii); experiment: Test B postemergence; conditions: 13 to 15 days
How it was run: as §1

[12] = test system: wheat (Triticum aestivum); experiment: Test B postemergence; conditions: 13 to 15 days
How it was run: as §1

[13] = test system: morning glory (Ipomoea hederacea); experiment: Test B postemergence; conditions: 13 to 15 days
How it was run: as §1

[14] = test system: blackgrass (Alopecurus myosuroides); experiment: Test B postemergence; conditions: 13 to 15 days
How it was run: as §1

[15] = test system: Surinam grass (Brachiaria decumbens); experiment: Test B postemergence; conditions: 13 to 15 days
How it was run: as §1

[16] = test system: lambsquarters (Chenopodium album); experiment: Test B postemergence; conditions: 13 to 15 days
How it was run: as §1

corn (Zea mays) [17] = experiment: Test B postemergence; conditions: 13 to 15 days
How it was run: as §1

wild oat (Avena fatua) = experiment: Test B postemergence; conditions: 13 to 15 days
How it was run: as §1

[18] = test system: barnyardgrass (Echinochloa crus-galli); experiment: Test B postemergence; conditions: 13 to 15 days
How it was run: as §1

[19] = test system: velvetleaf (Abutilon theophrasti); experiment: Test B postemergence; conditions: 13 to 15 days
How it was run: as §1

[20] = test system: pigweed (Amaranthus retroflexus); experiment: Test B postemergence; conditions: 13 to 15 days
How it was run: as §1

[21] = test system: crabgrass (Digitaria sanguinalis); experiment: Test B postemergence; conditions: 13 to 15 days
How it was run: as §1

[22] = test system: cocklebur (Xanthium strumarium); experiment: Test B postemergence; conditions: 13 to 15 days
How it was run: as §1

[23] = Rate 125 g/ha, scale 0 (no effect) to 100 (complete control)
[24] = Rate 500 g/ha, scale 0 to 100, 0 is no effect, 100 is complete control

With CC(C)(C)c1ccn(C2CCN(c3cccc(Cl)c3)C2=O)n1 (centres unmarked) [Compound 43] the “Plant response rating, Foxtail, Giant” value ([1]; Preemergence, Rate 500 g/ha) was 100, the “Plant response rating, Foxtail, Giant” value ([1]; preemergence, Rate 125 g/ha) was 0 and the “Plant response rating, Morningglory” value [2] was 0. For the same molecule, the “Plant response rating, Surinam grass” value ([3]; Preemergence, Rate 500 g/ha) was 20, the “Plant response rating, Surinam grass” value ([3]; preemergence, Rate 125 g/ha) was 0 and the “Plant response rating, Lambsquarters” value ([4]; Preemergence, Rate 500 g/ha) was 100. The “Plant response rating, Lambsquarters” value ([4]; preemergence, Rate 125 g/ha) was 100, the “Plant response rating, Corn” value (corn (Zea mays) [5]; Preemergence, Rate 500 g/ha) was 0 and the “Plant response rating, Corn” value (corn (Zea mays) [5]; preemergence, Rate 125 g/ha) was 0. For the same molecule, the “Plant response rating, Barnyardgrass” value ([6]; Preemergence, Rate 500 g/ha) was 100, the “Plant response rating, Barnyardgrass” value ([6]; preemergence, Rate 125 g/ha) was 60 and the “Plant response rating, Velvetleaf” value [7] was 0. The “Plant response rating, Pigweed” value [8] was 100, the “Plant response rating, Crabgrass” value ([9]; Preemergence, Rate 500 g/ha) was 90 and the “Plant response rating, Crabgrass” value ([9]; preemergence, Rate 125 g/ha) was 0. The “Plant response rating, Cocklebur” value [10] was 0, the “Plant response rating, Rice” value (rice (Oryza saliva)) was 70 and the “Plant response rating, Sunflower” value (Sunflower) was 0. The “Plant response rating, Foxtail, Giant” value [11, 23] was 0, the “Plant response rating, Foxtail, Giant” value [11, 24] was 0 and the “Plant response rating, Wheat” value [12, 23] was 0. For the same molecule, the “Plant response rating, Wheat” value [12, 24] was 0, the “Plant response rating, Morningglory” value [13, 23] was 0 and the “Plant response rating, Morningglory” value [13, 24] was 0. The “Plant response rating, Blackgrass” value [14, 23] was 0, the “Plant response rating, Blackgrass” value [14, 24] was 0 and the “Plant response rating, Surinam grass” value [15, 23] was 0. The “Plant response rating, Surinam grass” value [15, 24] was 0, the “Plant response rating, Lambsquarters” value [16, 23] was 50 and the “Plant response rating, Lambsquarters” value [16, 24] was 80. For the same molecule, the “Plant response rating, Corn” value (corn (Zea mays) [17]; [23]) was 0, the “Plant response rating, Corn” value (corn (Zea mays) [17]; [24]) was 0 and the “Plant response rating, Wild Oat” value (wild oat (Avena fatua); [23]) was 0. The “Plant response rating, Wild Oat” value (wild oat (Avena fatua); [24]) was 0, the “Plant response rating, Barnyardgrass” value [18, 23] was 0 and the “Plant response rating, Barnyardgrass” value [18, 24] was 70. The “Plant response rating, Velvetleaf” value [19, 23] was 0, the “Plant response rating, Velvetleaf” value [19, 24] was 0 and the “Plant response rating, Pigweed” value [20, 23] was 50. For the same molecule, the “Plant response rating, Pigweed” value [20, 24] was 80, the “Plant response rating, Crabgrass” value [21, 23] was 0 and the “Plant response rating, Crabgrass” value [21, 24] was 50. The “Plant response rating, Cocklebur” value [22, 23] was 0 and the “Plant response rating, Cocklebur” value [22, 24] was 0.
